Consider three compounds from patent US8293706B2, “Method for inhibiting release of hepatitis B virus from liver cells” (priority 2008, dated 2012).

Where two headings read alike, the source gives them in different places. Some results are limits rather than exact numbers.

The subject of data set [1] is HBV M204V. The experiment in a line: HBVDR assay, strain M204V. The data set is classed as cell-based.
Data set [2] relates to HBV N236T. The experiment in a line: HBVDR assay, strain N236T. In kind it is cell-based.
The test system of data set [3] is HBV LM/MV. The experiment in a line: HBVDR assay, strain LM/MV. In kind it is cell-based.
In data set [4] the test system is HBV M204I. Kind of data set: HBVDR assay, strain M204I. The data set is classed as cell-based.
Data set [5] concerns HBV WT. The experiment in a line: HBVDR assay, strain WT. In kind it is cell-based. The following applies: assay type HBVDR.
Data set [6] deals with HBV L180M. Kind of data set: HBVDR assay, strain L180M. The data set is classed as cell-based.
Data set [7] can be described thus: Neutral red dye uptake toxicity in 2.2.15 cells. The data set is classed as cell-based, human. The following applies: human, neutral red uptake (A510) 24 hours after last of 9 daily treatments, positive assay control. Here is the method: (§1) The ability of sLDLR to inhibit pathogenic viruses was tested by the NIAID Antimicrobial Acquisition and Coordinating Facility (AACF). Confluent cultures of 2.2.15 cells (HBV-infected human HepG2 hepatocellular carcinoma cells (ATCC HB-8065), constitutively shedding HBV virions) were maintained on 96-well flat-bottomed tissue culture plates in RPMI1640 medium with 2% fetal bovine serum (Korba & Gerin, Antivir. Res. 19:55-70, 1992). Cultures (6 per each of 4 test concentrations on two replicate plates) were treated with 9 consecutive daily doses of sLDL compounds. Medium was changed daily with fresh test compounds. HBV virion DNA in the culture medium was assessed 24 hours after the last treatment by quantitative blot hybridization. Uptake of neutral red dye (absorbance of internalized dye at […] [A510]) wa used to determine the relative level of toxicity 24 hours following the last treatment (Korba & Gerin, Antivir. Res. 19:55-70, 1992). Values are presented as a percentage of the average A510 values for 9 separate cultures of untreated cells maintained on the same plate. Cultures for the toxicity analyses were seeded at the same time with the identical pool of stock cells used for the antiviral analyses and maintained in an identical manner. A total of 3 cultures were treated with each concentration of test compound. […] CC50, EC50, EC90, and S.I. (CC50/EC90) were calculated. […]

The subject of data set [8] is HBV. Kind of data set: Inhibition of HBV release from 2.2.15 cells (HBV virion DNA in culture medium, quantitative blot hybridization). In kind it is cell-based. The note with it: for SI: S.I. (CC50/EC90). Here is the method:
The ability of sLDLR to inhibit pathogenic viruses was tested by the NIAID Antimicrobial Acquisition and Coordinating Facility (AACF). Confluent cultures of 2.2.15 cells (HBV-infected human HepG2 hepatocellular carcinoma cells (ATCC HB-8065), constitutively shedding HBV virions) were maintained on 96-well flat-bottomed tissue culture plates in RPMI1640 medium with 2% fetal bovine serum (Korba & Gerin, Antivir. Res. 19:55-70, 1992). Cultures (6 per each of 4 test concentrations on two replicate plates) were treated with 9 consecutive daily doses of sLDL compounds. Medium was changed daily with fresh test compounds. HBV virion DNA in the culture medium was assessed 24 hours after the last treatment by quantitative blot hybridization. Uptake of neutral red dye (absorbance of internalized dye at […] [A510]) wa used to determine the relative level of toxicity 24 hours following the last treatment (Korba & Gerin, Antivir. Res. 19:55-70, 1992). Values are presented as a percentage of the average A510 values for 9 separate cultures of untreated cells maintained on the same plate. Cultures for the toxicity analyses were seeded at the same time with the identical pool of stock cells used for the antiviral analyses and maintained in an identical manner. A total of 3 cultures were treated with each concentration of test compound. […] CC50, EC50, EC90, and S.I. (CC50/EC90) were calculated. Lamivudine (3TC) was used as a positive assay control.

The test system of data set [9] is 2.2.15 cells (HBV-infected human HepG2 hepatocellular carcinoma cells). Kind of data set: Neutral red dye uptake toxicity in 2.2.15 cells. The data set is classed as cell-based. The note with it: neutral red uptake (A510) 24 hours after last of 9 daily treatments. On the procedure: as §1
Data set [10] deals with lamivudine as well as adefovir dipovoxil resistant mutants (HBV). The experiment in a line: HBVDR assay, panel of resistant mutants. The note with it: all tested resistant mutants. The data set is classed as cell-based.
Where [11] appears, read: HBV strain M204V, assay type HBVDR, read-out: EC50.
The mark [12] stands for this setting: HBV strain M204V, assay type HBVDR, read-out: EC90.
Setting [13] is: HBV strain N236T, assay type HBVDR, read-out: EC50.
The mark [14] stands for this setting: HBV strain N236T, assay type HBVDR, read-out: EC90.
[15] abbreviates: HBV strain LM/MV, assay type HBVDR, read-out: EC50.
The mark [16] stands for this setting: HBV strain LM/MV, assay type HBVDR, read-out: EC90.
Setting [17] is: HBV strain M204I, assay type HBVDR, read-out: EC50.
Setting [18] is: HBV strain M204I, assay type HBVDR, read-out: EC90.
Setting [19] is: HBV strain L180M, assay type HBVDR, read-out: EC50.
Where [20] appears, read: HBV strain L180M, assay type HBVDR, read-out: EC90.
[21] abbreviates: HBV virion DNA in culture medium 24 hours after last of 9 consecutive daily doses, 2.2.15 cells.

For orientation: EC50 means the midpoint of the concentration-response curve. For orientation: EC90 means the concentration needed for an effect of 90%. For `CC(C)(C)C(=O)OCOP(=O)(COCCn1cnc2c(N)ncnc21)OCOC(=O)C(C)(C)C` [ADV, Adefovir Dipovoxil], the EC50 was found to be 1.8 µM in data set [1] (setting [11]); 8.1 µM in [2] (setting [13]); 1.3 µM in data set [3] (setting [15]); 1.3 µM in [4] (setting [17]); 1.5 µM in data set [5]; 1.9 µM in [6] (setting [19]). Also, the EC90 in data set [1] (setting [12]) was 7 µM; in data set [2] (setting [14]), 32 µM; in [3] (setting [16]) it was 7.8 µM; in [4] (setting [18]), 7.2 µM; in data set [5], 6.5 µM; in [6] (setting [20]), 8.5 µM.

As usually defined, the CC50 is the concentration at which the toxic effect on the cells reaches its halfway point. A low value points to harm at low concentration. With `Nc1ccn([C@@H]2CS[C@H](CO)O2)c(=O)n1` [Lamivudine], the EC50 in data set [1] (Hepatitis B virus) was greater than 100 µM; in [2] (Hepatitis B virus), 0.2 µM; in data set [3] (Hepatitis B virus), greater than 100 µM; in data set [4] (Hepatitis B virus), greater than 100 µM; in data set [5] (Hepatitis B virus), 0.2 µM; in data set [6] (Hepatitis B virus), 5.2 µM. The same compound yielded a half-maximal effective concentration (EC50) in data set [8] (Hepatitis B virus, 24 h) of 0.045 µM. Also, the EC90 was greater than 100 µM in data set [1] (Hepatitis B virus); 0.6 µM in data set [2] (Hepatitis B virus); greater than 100 µM in data set [3] (Hepatitis B virus); greater than 100 µM in [4] (Hepatitis B virus); 0.7 µM in [5] (Hepatitis B virus); 20 µM in data set [6] (Hepatitis B virus). Besides, the EC90 in [8] (Hepatitis B virus, 24 h) turned out to be 0.146 µM. This compound also registered a CC50 in data set [7] of 2310 µM. Moreover, in [8] (Lamivudine columns), the SI was 15178.

In the case of sLDLR, the EC50 came to 1 µM in [1] (setting [11]); 1 µM in [2] (setting [13]); 1.2 µM in data set [3] (setting [15]); 1.1 µM in data set [4] (setting [17]); 0.9 µM in [5]; 0.8 µM in [6] (setting [19]). Also, the EC50 in data set [8] (setting [21]) was determined as 0.131 µg/mL. The 90% effect concentration (EC90) in data set [1] (setting [12]) came out at 6.5 µM; in data set [2] (setting [14]), 8.2 µM; in data set [3] (setting [16]) it was 7.5 µM; in data set [4] (setting [18]) it was 8 µM; in data set [5], 6 µM; in data set [6] (setting [20]), 6.3 µM. The EC90 in data set [8] (setting [21]) is 0.922 µg/mL. In data set [9], the CC50 was greater than 10 µg/mL. Moreover, in data set [10], the “activity against lamivudine and adefovir dipovoxil resistant mutants” value is given as “active against all tested lamivudine as well as adefovir dipovoxil resistant mutants”. Besides, in [8] (2.2.15 cells), the “inhibition of formation of HBV virion from virus-infected cells relative to toxicity” value is recorded as “inhibited the formation of HBV virion from virus-infected cells at concentrations far below toxicity”. Further, the SI in data set [8] (sLDLR columns) is on record as greater than 11.
